The values below come from ChEMBL document CHEMBL5321245, “Synthesis and Bioactivity of Isoflavones from Ficus carica and Some Non-Natural Analogues” (J Nat Prod, 2023).

Values after ≈ are worked out from the molar mass of the structure shown. Where only a bound is given, the exact number is not on record here.

Assay [1] deals with Providencia stuartii. Kind of assay: Antibacterial activity against Providencia stuartii PS2636 assessed as inhibition of bacterial growth incubated for 18 to 24 hrs in the presence of PAbetaN by microdilution method. The note with it: time 18-24 hrs. The assay is classed as functional.
Assay [2] has as its system Staphylococcus aureus. Kind of assay: Antibacterial activity against methicillin-resistant Staphylococcus aureus 6 assessed as inhibition of bacterial growth incubated for 18 to 24 hrs by microdilution method. The note with it: time 18-24 hrs. The assay is classed as functional.
The subject of assay [3] is Pseudomonas aeruginosa. Kind of assay: Antibacterial activity against Pseudomonas aeruginosa PA01 assessed as inhibition of bacterial growth incubated for 18 to 24 hrs by microdilution method. The assay is classed as functional. The note with it: time 18-24 hrs. Background: Dilution methods test growth across graded concentrations, often in twofold steps.
In assay [4] the test system is Staphylococcus aureus. Kind of assay: Antibacterial activity against methicillin-resistant Staphylococcus aureus 6 assessed as inhibition of bacterial growth incubated for 18 to 24 hrs in the presence of PAbetaN by microdilution method. The note with it: time 18-24 hrs. The assay is classed as functional.
Assay [5] has as its system Klebsiella pneumoniae. Kind of assay: Antibacterial activity against Klebsiella pneumoniae KP63 assessed as inhibition of bacterial growth incubated for 18 to 24 hrs in presence of PAbetaN by microdilution method. The note with it: time 18-24 hrs. It is filed as functional.
The subject of assay [6] is Escherichia coli. Kind of assay: Antibacterial activity against Escherichia coli AG102 assessed as inhibition of bacterial growth incubated for 18 to 24 hrs by microdilution method. The assay is classed as functional. The note with it: time 18-24 hrs.
For assay [7], the system named is Escherichia coli. Kind of assay: Antibacterial activity against Escherichia coli AG102 assessed as inhibition of bacterial growth incubated for 18 to 24 hrs in the presence of PAbetaN by microdilution method. The note with it: time 18-24 hrs. It is filed as functional.
For assay [8], the system named is Providencia stuartii. Kind of assay: Antibacterial activity against Providencia stuartii NEA16 assessed as inhibition of bacterial growth incubated for 18 to 24 hrs by microdilution method. It is filed as functional. The note with it: time 18-24 hrs.
The subject of assay [9] is Klebsiella pneumoniae. Kind of assay: Antibacterial activity against Klebsiella pneumoniae KP63 assessed as inhibition of bacterial growth incubated for 18 to 24 hrs by microdilution method. The assay is classed as functional. The note with it: time 18-24 hrs.
Assay [10] deals with Klebsiella pneumoniae. Kind of assay: Antibacterial activity against Klebsiella pneumoniae ATCC 11296 assessed as inhibition of bacterial growth incubated for 18 to 24 hrs by microdilution method. It is filed as functional. The note with it: time 18-24 hrs.
Assay [11] deals with Staphylococcus aureus. Kind of assay: Antibacterial activity against methicillin-resistant Staphylococcus aureus 4 assessed as inhibition of bacterial growth incubated for 18 to 24 hrs by microdilution method. The assay is classed as functional. The note with it: time 18-24 hrs.
Assay [12] deals with Pseudomonas aeruginosa. Kind of assay: Antibacterial activity against Pseudomonas aeruginosa PA124 assessed as inhibition of bacterial growth incubated for 18 to 24 hrs by microdilution method. The assay is classed as functional. The note with it: time 18-24 hrs.
Assay [13] deals with Providencia stuartii. Kind of assay: Antibacterial activity against Providencia stuartii PS2636 assessed as inhibition of bacterial growth incubated for 18 to 24 hrs by microdilution method. It is filed as functional. The note with it: time 18-24 hrs.
For assay [14], the system named is Pseudomonas aeruginosa. Kind of assay: Antibacterial activity against Pseudomonas aeruginosa PA01 assessed as inhibition of bacterial growth incubated for 18 to 24 hrs in the presence of PAbetaN by microdilution method. The note with it: time 18-24 hrs. It is filed as functional.
The subject of assay [15] is CCRF-CEM. Kind of assay: Cytotoxicity against drug sensitive human CCRF-CEM cells assessed as inhibition of cell growth incubated for 72 hrs by resazurin dye based assay. The assay is classed as functional.
Assay [16] deals with Klebsiella pneumoniae. Kind of assay: Antibacterial activity against Klebsiella pneumoniae ATCC 11296 assessed as inhibition of bacterial growth incubated for 18 to 24 hrs in presence of PAbetaN by microdilution method. The assay is classed as functional. The note with it: time 18-24 hrs.
The subject of assay [17] is Pseudomonas aeruginosa. Kind of assay: Antibacterial activity against Pseudomonas aeruginosa PA124 assessed as inhibition of bacterial growth incubated for 18 to 24 hrs in the presence of PAbetaN by microdilution method. The assay is classed as functional. The note with it: time 18-24 hrs.
Assay [18] has as its system Staphylococcus aureus. Kind of assay: Antibacterial activity against methicillin-resistant Staphylococcus aureus 4 assessed as inhibition of bacterial growth incubated for 18 to 24 hrs in the presence of PAbetaN by microdilution method. It is filed as functional. The note with it: time 18-24 hrs.
For assay [19], the system named is Providencia stuartii. Kind of assay: Antibacterial activity against Providencia stuartii NEA16 assessed as inhibition of bacterial growth incubated for 18 to 24 hrs in the presence of PAbN by microdilution method. It is filed as functional. The note with it: time 18-24 hrs.
The test system of the next assay is ADR5000 cell line. Kind of assay: Cytotoxicity against multidrug resistant human CEM/ADR5000 cells overexpressing p-glycoprotein assessed as inhibition of cell growth incubated for 72 hrs by resazurin dye based assay. The note with it: ADR5000, 72 h. The assay is classed as functional. For orientation: The colour change of resazurin is a common sign of viable cells or microbes.

In assay [20] the test system is Escherichia coli. Kind of assay: Antibacterial activity against Escherichia coli ATCC 10536 assessed as inhibition of bacterial growth incubated for 18 to 24 hrs by microdilution method. The note with it: time 18-24 hrs. It is filed as functional.
The test system of assay [21] is Escherichia coli. Kind of assay: Antibacterial activity against Escherichia coli ATCC 10536 assessed as inhibition of bacterial growth incubated for 18 to 24 hrs in the presence of PAbetaN by microdilution method. The note with it: time 18-24 hrs. It is filed as functional.
The next assay deals with HL-60. Kind of assay: Antiproliferative activity against human HL-60 cells assessed as inhibition of cell growth by MTT assay. It is filed as functional, cell-based.
A further assay deals with SW480. Kind of assay: Antiproliferative activity against human SW480 cells assessed as inhibition of cell growth by MTT assay. The assay is classed as functional, cell-based. For orientation: Tetrazolium dyes change colour on reduction, which living cells bring about.
The subject of assay [22] is CCRF-CEM. Kind of assay: Cytotoxicity against drug sensitive human CCRF-CEM cells assessed as inhibition of cell growth at 10 uM incubated for 72 hrs by resazurin dye based assay relative to control. It is filed as functional.
A further assay concerns RAW264.7. Kind of assay: Antiinflammatory activity in mouse RAW264.7 cells assessed as inhibition of LPS-induced NO production. The assay is classed as functional, cell-based.
The test system of another assay is SMMC-7721. Kind of assay: Antiproliferative activity against human SMMC-7721 cells assessed as inhibition of cell growth by MTT assay. It is filed as functional, cell-based.
A further assay concerns MCF7. Kind of assay: Antiproliferative activity against human MCF7 cells assessed as inhibition of cell growth by MTT assay. It is filed as functional, cell-based.
In a further assay the test system is A549. Kind of assay: Antiproliferative activity against human A549 cells assessed as inhibition of cell growth by MTT assay. It is filed as functional, cell-based.
Assay [23] is described as follows: Resistance index, ratio of IC50 for multidrug resistant human CEM/ADR5000 cells overexpressing p-glycoprotein to IC50 for drug sensitive human CCRF-CEM cells. The assay is classed as functional.

By MIC is commonly meant the least concentration at which growth counts as inhibited. For orientation: IC50 means the point on the concentration scale where inhibition reaches its midpoint. For `COc1cc2occ(-c3ccc(C#N)cc3)c(=O)c2c(OC)c1CC=C(C)C`, the MIC was found to be 8 µg/mL with Providencia stuartii [1]; 130 µg/mL (≈ 346 µM) with Staphylococcus aureus [2]; 130 µg/mL (≈ 346 µM) in the assay on Pseudomonas aeruginosa [3]; 16 µg/mL in the assay with Staphylococcus aureus [4]; 1 µg/mL in the assay with Klebsiella pneumoniae [5]; 130 µg/mL (≈ 346 µM) in the assay on Escherichia coli [6]. Further, the MIC in the assay on Escherichia coli [7] was 130 µg/mL; with Providencia stuartii [8] it was 16 µg/mL (≈ 42.6 µM); in the assay on Klebsiella pneumoniae [9], over 130 µg/mL; with Klebsiella pneumoniae [10], 130 µg/mL (≈ 346 µM); with Staphylococcus aureus [11] it was 64 µg/mL (≈ 170 µM); with Pseudomonas aeruginosa [12], over 130 µg/mL. The MIC is 130 µg/mL (≈ 346 µM) in the assay with Providencia stuartii [13]; 32 µg/mL in the assay on Pseudomonas aeruginosa [14]; 4 µg/mL in the assay with Klebsiella pneumoniae [16]; 32 µg/mL in the assay with Pseudomonas aeruginosa [17]; 4 µg/mL in the assay on Staphylococcus aureus [18]; 1 µg/mL with Providencia stuartii [19]. For the same compound, the figures for the MIC in the assay on Escherichia coli [20] and in the assay with Escherichia coli [21] were 32 µg/mL (≈ 85.2 µM) and 2 µg/mL, respectively. For the same compound, the IC50 with CCRF-CEM [15] and in the assay on ADR5000 cell line was 20000 nM each time.
Usually inhibition stands for how much of the control response was suppressed. Take `COc1ccc(-c2coc3cc(OC)c(CC=C(C)C)c(OC)c3c2=O)cc1`: the minimum inhibitory concentration (MIC) with Providencia stuartii [1] is 4 µg/mL; in the assay with Staphylococcus aureus [2], 32 µg/mL (≈ 84.1 µM); in the assay with Pseudomonas aeruginosa [3] it was over 130 µg/mL; in the assay with Staphylococcus aureus [4], 2 µg/mL; in the assay with Klebsiella pneumoniae [5], 1 µg/mL; in the assay with Escherichia coli [6] it was 32 µg/mL (≈ 84.1 µM). The MIC in the assay on Escherichia coli [7] is 2 µg/mL; in the assay on Providencia stuartii [8], 130 µg/mL (≈ 342 µM); in the assay on Klebsiella pneumoniae [9], over 130 µg/mL; in the assay with Klebsiella pneumoniae [10], 130 µg/mL (≈ 342 µM); in the assay on Staphylococcus aureus [11], 64 µg/mL (≈ 168 µM); in the assay with Pseudomonas aeruginosa [12], 64 µg/mL (≈ 168 µM). In addition, the minimum inhibitory concentration (MIC) in the assay with Providencia stuartii [13] turned out to be 130 µg/mL (≈ 342 µM); in the assay with Pseudomonas aeruginosa [14], 64 µg/mL; in the assay with Klebsiella pneumoniae [16], 2 µg/mL; in the assay with Pseudomonas aeruginosa [17] it was 8 µg/mL; in the assay with Staphylococcus aureus [18] it was 8 µg/mL; in the assay on Providencia stuartii [19], 4 µg/mL. In addition, the figures for the MIC with Escherichia coli [20] and in the assay on Escherichia coli [21] were 32 µg/mL (≈ 84.1 µM) and 2 µg/mL, respectively. For the same compound, the IC50 with HL-60 came out at 630 nM; with SW480, 630 nM; in the assay with RAW264.7 it was 2060 nM; in the assay with SMMC-7721 it was 630 nM; in the assay on MCF7, 630 nM; in the assay on A549, 630 nM. In the assay with CCRF-CEM [22], the inhibition at 10 µM is under 50%.
On to `COc1cc2occ(-c3ccc4c(c3)OCO4)c(=O)c2c(OC)c1CC=C(C)C`, for which the MIC in the assay with Providencia stuartii [1] was determined as 32 µg/mL; in the assay with Staphylococcus aureus [2] it was 32 µg/mL (≈ 81.1 µM); with Pseudomonas aeruginosa [3], 64 µg/mL (≈ 162 µM); with Staphylococcus aureus [4], 2 µg/mL; in the assay with Klebsiella pneumoniae [5], 1 µg/mL; in the assay on Escherichia coli [6], 130 µg/mL (≈ 330 µM). For the same compound, the MIC worked out at 32 µg/mL in the assay on Escherichia coli [7]; 130 µg/mL (≈ 330 µM) in the assay on Providencia stuartii [8]; 16 µg/mL (≈ 40.6 µM) with Klebsiella pneumoniae [9]; 130 µg/mL (≈ 330 µM) in the assay with Klebsiella pneumoniae [10]; 130 µg/mL (≈ 330 µM) with Staphylococcus aureus [11]; 130 µg/mL (≈ 330 µM) with Pseudomonas aeruginosa [12]. Moreover, the minimum inhibitory concentration (MIC) in the assay with Providencia stuartii [13] was determined as 130 µg/mL (≈ 330 µM); with Pseudomonas aeruginosa [14], 16 µg/mL; in the assay on Klebsiella pneumoniae [16] it was 1 µg/mL; in the assay with Pseudomonas aeruginosa [17], 4 µg/mL; in the assay on Staphylococcus aureus [18], 32 µg/mL; in the assay with Providencia stuartii [19], 8 µg/mL. Moreover, the minimum inhibitory concentration (MIC) is 130 µg/mL (≈ 330 µM) with Escherichia coli [20] and 64 µg/mL in the assay with Escherichia coli [21]. Moreover, in the assay on CCRF-CEM [22], the inhibition at 10 µM is under 50%.
As for `O=C(O)c1cn(C2CC2)c2cc(N3CCNCC3)c(F)cc2c1=O` [CIPROFLOXACIN], the MIC with Providencia stuartii [1] came to 0.5 µg/mL; in the assay with Staphylococcus aureus [2], 4 µg/mL (≈ 12.1 µM); in the assay with Staphylococcus aureus [4], 1 µg/mL; with Providencia stuartii [8], 2 µg/mL (≈ 6.04 µM); in the assay with Klebsiella pneumoniae [10], 1 µg/mL (≈ 3.02 µM); with Staphylococcus aureus [11], 8 µg/mL (≈ 24.1 µM). The MIC with Pseudomonas aeruginosa [12] worked out at 4 µg/mL (≈ 12.1 µM); with Providencia stuartii [13], 4 µg/mL (≈ 12.1 µM); in the assay with Pseudomonas aeruginosa [17], 1 µg/mL; in the assay on Staphylococcus aureus [18] it was 1 µg/mL; with Providencia stuartii [19], 0.25 µg/mL.
For `CC(=O)O[C@H]1C(=O)[C@@]2(C)[C@H]([C@H](OC(=O)c3ccccc3)[C@]3(O)C[C@H](OC(=O)[C@H](O)[C@@H](NC(=O)c4ccccc4)c4ccccc4)C(C)=C1C3(C)C)[C@]1(OC(C)=O)CO[C@@H]1C[C@@H]2O` [PACLITAXEL], the “Ratio IC50” value in assay [23] was found to be 390.
